{"source": "patent US20090098072A1", "about": "“ANTIOXIDANTS” (priority 2006, published 2009)", "assay": "Photoconversion test (absorption at 300 nm after solar simulator irradiation)", "format": "physicochemical", "experimental": "A 4% solution of the substance in isopropyl myristate is prepared. In each case, 40 μl of the solution are applied to the roughened surface of 2 acrylic glass plates (7.2×2.5 cm). One plate is subsequently irradiated in a solar simulator (Atlas CPS+) for 1 h 50 min with cooling. The sample is subsequently transferred into a 50 ml measuring cylinder and covered with 40 ml of isopropanol for extraction in the ultrasound bath. The sample volume is subsequently made up to precisely 50 ml, and the absorption is measured at 300 nm. An unirradiated batch treated analogously serves as comparison. The absorption can be increased by 22% from 0.094 (dark batch) to 0.115 by the irradiation step.", "data": [{"smiles": "Cc1ccc(CC2C(=O)C3(C)CCC2C3(C)C)cc1", "note": "(stereo not drawn) [Example 1, 1,7,7-trimethyl-3-(4-methylbenzyl)-bicyclo-[2.2.1]heptan-2-one]", "values": [{"measurement": "absorption at 300 nm, unirradiated (dark batch)", "setting": "4% solution in isopropyl myristate, 40 μl on acrylic glass plate, extracted with isopropanol to 50 ml, not irradiated", "value": 0.094}, {"measurement": "absorption at 300 nm after irradiation", "setting": "4% solution in isopropyl myristate, 40 μl on acrylic glass plate, solar simulator (Atlas CPS+) 1 h 50 min, extracted with isopropanol to 50 ml", "value": 0.115}, {"measurement": "increase of absorption at 300 nm by the irradiation step", "setting": "irradiated 1 h 50 min vs dark batch", "value": 22, "unit": "%"}]}]}
